Data on two compounds can be found in patent US8629301B2, “Process for the purification of benzphetamine hydrochloride” (Mallinckrodt LLC, priority 2004, dated 2014).

The data set is described as follows: partition between organic layer (toluene) and aqueous layer at adjusted pH. As to conditions: for logD hydrocarbon water: toluene/water.

`C[C@@H](Cc1ccccc1)N(C)Cc1ccccc1` [Benzphetamine, d-N-methyl-N-benzyl-beta-phenylisopropylamine]: the “partition coefficient (ratio of equilibrium concentration in the organic layer to that in the aqueous layer)” value runs as follows: (pH 4) 0.600; (pH 8) “∞”; (pH 10) “∞”. Moreover, the logD hydrocarbon water (pH 6) is 1.87.
`CN[C@@H](C)Cc1ccccc1` [Methamphetamine, methamphetamine]: the “partition coefficient (ratio of equilibrium concentration in the organic layer to that in the aqueous layer)” value reads like this: (pH 4) 0.015; (pH 6) 0.000; (pH 8) 0.124. For the setting “pH 10”, this compound showed a logD hydrocarbon water of 0.527.
